In ChEMBL document CHEMBL5316300, “Discovery of TP0597850: A Selective, Chemically Stable, and Slow Tight-Binding Matrix Metalloproteinase-2 Inhibitor with a Phenylbenzamide-Pentapeptide Hybrid Scaffold” (J Med Chem, 2023):

Columns and labels:
[1] = organism: Homo sapiens; assay: Selectivity ratio of Ki for recombinant human MMP3 to Ki for recombinant human MMP2
[2] = organism: Homo sapiens; assay: Selectivity ratio of Ki for recombinant human MMP8 to Ki for recombinant human MMP2
[3] = target: Matrix metalloproteinase-14 (Homo sapiens, UniProt P50281); assay: Inhibition of human recombinant MMP14 using MOCAc-Lys-Pro-Leu-Gly-Leu-A2pr(Dnp)-Ala-Arg-N2 as substrate preincubated for 15 mins followed by substrate addition and measured after 120 mins by fluorescence based assay
[4] = target: MMP-2/MMP-14 (Homo sapiens) (UniProt P50281+P08253); assay: Selectivity ratio of Ki for recombinant human MMP14 to Ki for recombinant human MMP2; assay type: protein assay
[5] = target: Matrix metalloproteinase-9 (Homo sapiens, UniProt P14780); assay: Inhibition of human recombinant MMP9 using MOCAc-Lys-Pro-Leu-Gly-Leu-A2pr(Dnp)-Ala-Arg-N2 as substrate preincubated for 15 mins followed by substrate addition and measured after 120 mins by fluorescence based assay
[6] = Chemical stability of the compound in phosphate buffer at pH 7.4 assessed as residual rate incubated for 2 weeks by HPLC analysis; assay type: physicochemical; details: read-out: Stability
[7] = target: MMP-1/MMP-2 (Homo sapiens) (UniProt P08253+P03956); assay: Selectivity ratio of Ki for recombinant human MMP1 to Ki for recombinant human MMP2; assay type: protein assay
[8] = target: T1, 72 kDa type IV collagenase (Homo sapiens, UniProt P08253); assay: Inhibition of recombinant human MMP2 using MOCAc-Lys-Pro-Leu-Gly-Leu-A2pr(Dnp)-Ala-Arg-N2 as substrate preincubated for 10 to 15 mins followed by substrate addition and measured after 60 to 120 mins by fluorescence based assay
Target sequence in this assay (P08253 whole entry): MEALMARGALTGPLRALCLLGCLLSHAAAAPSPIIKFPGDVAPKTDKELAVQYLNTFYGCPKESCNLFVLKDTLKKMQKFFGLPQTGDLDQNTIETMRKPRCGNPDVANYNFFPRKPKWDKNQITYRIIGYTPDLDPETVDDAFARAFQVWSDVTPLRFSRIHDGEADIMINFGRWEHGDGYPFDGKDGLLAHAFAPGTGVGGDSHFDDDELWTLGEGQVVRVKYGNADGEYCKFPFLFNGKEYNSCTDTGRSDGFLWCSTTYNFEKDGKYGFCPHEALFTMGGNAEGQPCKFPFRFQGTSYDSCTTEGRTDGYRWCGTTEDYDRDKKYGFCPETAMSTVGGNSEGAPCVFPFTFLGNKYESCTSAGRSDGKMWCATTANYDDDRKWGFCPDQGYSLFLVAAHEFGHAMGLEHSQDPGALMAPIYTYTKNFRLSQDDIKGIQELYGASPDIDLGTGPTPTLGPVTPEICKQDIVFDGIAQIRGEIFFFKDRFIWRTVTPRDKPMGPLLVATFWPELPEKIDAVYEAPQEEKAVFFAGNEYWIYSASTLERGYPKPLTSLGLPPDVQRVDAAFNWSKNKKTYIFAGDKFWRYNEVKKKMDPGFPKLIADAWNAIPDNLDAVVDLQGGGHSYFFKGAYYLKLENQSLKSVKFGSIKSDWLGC

[9] = target: Stromelysin-1 (Homo sapiens, UniProt P08254); assay: Inhibition of human recombinant MMP3 using MOCAc-Lys-Pro-Leu-Gly-Leu-A2pr(Dnp)-Ala-Arg-N2 as substrate preincubated for 15 mins followed by substrate addition and measured after 120 mins by fluorescence based assay
[10] = target: T2, MMP-2/MMP-13 (Homo sapiens) (UniProt P08253+P45452); assay: Selectivity ratio of IC50 for recombinant human MMP13 to IC50 for recombinant human MMP2; assay type: protein assay
[11] = organism: Homo sapiens; assay: Selectivity ratio of IC50 for recombinant human MMP12 to IC50 for recombinant human MMP2
[12] = target: T3, Macrophage metalloelastase (Homo sapiens, UniProt P39900); assay: Inhibition of human recombinant MMP12 using MOCAc-Lys-Pro-Leu-Gly-Leu-A2pr(Dnp)-Ala-Arg-N2 as substrate preincubated for 10 to 15 mins followed by substrate addition and measured after 60 to 120 mins by fluorescence based assay; details: read-out: IC50
[13] = target: T1, 72 kDa type IV collagenase; assay: Inhibition of human recombinant MMP2 using MOCAc-Lys-Pro-Leu-Gly-Leu-A2pr(Dnp)-Ala-Arg-N2 as substrate preincubated for 15 mins followed by substrate addition and measured after 120 mins by fluorescence based assay
Target sequence in this assay (P08253 whole entry): as above

[14] = Chemical stability of the compound in phosphate buffer at pH 4 assessed as residual rate incubated for 2 weeks by HPLC analysis; assay type: physicochemical; details: read-out: Stability
[15] = target: T3, Macrophage metalloelastase; assay: Inhibition of human recombinant MMP12 using MOCAc-Lys-Pro-Leu-Gly-Leu-A2pr(Dnp)-Ala-Arg-N2 as substrate preincubated for 15 mins followed by substrate addition and measured after 120 mins by fluorescence based assay
[16] = target: T1, 72 kDa type IV collagenase; assay: Binding affinity to human MMP2 assessed as dissociative half-life
Target sequence in this assay (P08253 110-660 limits assumed): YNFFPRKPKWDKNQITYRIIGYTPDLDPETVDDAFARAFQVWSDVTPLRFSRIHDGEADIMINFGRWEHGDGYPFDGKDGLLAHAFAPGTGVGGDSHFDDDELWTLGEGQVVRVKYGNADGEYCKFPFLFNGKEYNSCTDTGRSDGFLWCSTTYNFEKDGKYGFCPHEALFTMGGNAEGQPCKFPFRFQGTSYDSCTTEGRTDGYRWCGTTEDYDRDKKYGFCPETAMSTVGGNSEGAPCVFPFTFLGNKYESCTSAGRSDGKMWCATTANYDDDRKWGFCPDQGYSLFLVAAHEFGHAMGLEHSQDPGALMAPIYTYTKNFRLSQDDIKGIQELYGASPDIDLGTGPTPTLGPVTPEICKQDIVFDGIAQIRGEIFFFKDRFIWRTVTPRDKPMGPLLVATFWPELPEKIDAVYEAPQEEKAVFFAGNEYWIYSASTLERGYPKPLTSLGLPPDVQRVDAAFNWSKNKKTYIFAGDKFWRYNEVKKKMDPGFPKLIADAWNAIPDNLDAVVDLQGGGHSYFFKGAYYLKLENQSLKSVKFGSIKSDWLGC

[17] = target: T2, MMP-2/MMP-13 (Homo sapiens); assay: Selectivity ratio of Ki for recombinant human MMP13 to Ki for recombinant human MMP2; assay type: protein assay
[18] = target: T4, Matrilysin (Homo sapiens, UniProt P09237); assay: Inhibition of human recombinant MMP7 using MOCAc-Lys-Pro-Leu-Gly-Leu-A2pr(Dnp)-Ala-Arg-N2 as substrate preincubated for 15 mins followed by substrate addition and measured after 120 mins by fluorescence based assay
T4 sequence (P09237 whole entry): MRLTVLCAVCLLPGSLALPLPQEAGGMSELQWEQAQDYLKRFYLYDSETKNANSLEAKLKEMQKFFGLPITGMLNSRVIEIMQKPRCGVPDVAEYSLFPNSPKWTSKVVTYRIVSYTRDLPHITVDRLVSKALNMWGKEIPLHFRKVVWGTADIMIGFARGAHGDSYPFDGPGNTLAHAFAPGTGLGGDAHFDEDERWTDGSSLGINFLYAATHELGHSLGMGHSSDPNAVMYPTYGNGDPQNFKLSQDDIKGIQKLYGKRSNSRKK

[19] = organism: Homo sapiens; assay: Selectivity ratio of Ki for recombinant human MMP12 to Ki for recombinant human MMP2
[20] = target: MMP-2/MMP-9 (Homo sapiens) (UniProt P08253+P14780); assay: Selectivity ratio of Ki for recombinant human MMP9 to Ki for recombinant human MMP2; assay type: protein assay
[21] = target: T1, 72 kDa type IV collagenase; assay: Inhibition of human recombinant MMP2 using MOCAc-Lys-Pro-Leu-Gly-Leu-A2pr(Dnp)-Ala-Arg-N2 as substrate preincubated for 5 mins followed by substrate addition and measured after 120 mins by fluorescence based assay
Target sequence in this assay (P08253 whole entry): as the sequence (P08253 whole entry) above

[22] = Chemical stability of the compound in phosphate buffer at pH 9 assessed as residual rate incubated for 2 weeks by HPLC analysis; assay type: physicochemical; details: read-out: Stability
[23] = target: T5, Interstitial collagenase (Homo sapiens, UniProt P03956); assay: Inhibition of human recombinant MMP1 using MOCAc-Lys-Pro-Leu-Gly-Leu-A2pr(Dnp)-Ala-Arg-N2 as substrate preincubated for 15 mins followed by substrate addition and measured after 120 mins by fluorescence based assay
T5 sequence (P03956 whole entry): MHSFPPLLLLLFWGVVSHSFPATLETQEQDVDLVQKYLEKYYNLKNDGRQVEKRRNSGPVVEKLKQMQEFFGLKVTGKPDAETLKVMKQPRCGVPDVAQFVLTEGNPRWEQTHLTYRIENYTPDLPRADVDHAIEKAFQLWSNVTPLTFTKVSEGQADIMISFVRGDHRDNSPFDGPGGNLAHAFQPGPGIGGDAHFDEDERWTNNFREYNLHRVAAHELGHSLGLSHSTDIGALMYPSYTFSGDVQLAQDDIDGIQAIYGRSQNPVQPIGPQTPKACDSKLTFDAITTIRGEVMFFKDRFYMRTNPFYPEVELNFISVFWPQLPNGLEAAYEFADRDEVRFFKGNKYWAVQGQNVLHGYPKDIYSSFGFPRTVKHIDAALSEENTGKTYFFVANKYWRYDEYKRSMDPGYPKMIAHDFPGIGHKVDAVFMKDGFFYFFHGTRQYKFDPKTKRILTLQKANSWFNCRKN

[24] = target: Neutrophil collagenase (Homo sapiens, UniProt P22894); assay: Inhibition of human recombinant MMP8 using MOCAc-Lys-Pro-Leu-Gly-Leu-A2pr(Dnp)-Ala-Arg-N2 as substrate preincubated for 15 mins followed by substrate addition and measured after 120 mins by fluorescence based assay
[25] = target: Collagenase 3 (Homo sapiens, UniProt P45452); assay: Inhibition of human recombinant MMP13 using MOCAc-Lys-Pro-Leu-Gly-Leu-A2pr(Dnp)-Ala-Arg-N2 as substrate preincubated for 15 mins followed by substrate addition and measured after 120 mins by fluorescence based assay
[26] = Metabolic stability in human serum assessed as parent compound remaining measured for 4 hrs; assay type: ADME, cell-free; details: read-out: Stability

T3 sequence (P39900 whole entry): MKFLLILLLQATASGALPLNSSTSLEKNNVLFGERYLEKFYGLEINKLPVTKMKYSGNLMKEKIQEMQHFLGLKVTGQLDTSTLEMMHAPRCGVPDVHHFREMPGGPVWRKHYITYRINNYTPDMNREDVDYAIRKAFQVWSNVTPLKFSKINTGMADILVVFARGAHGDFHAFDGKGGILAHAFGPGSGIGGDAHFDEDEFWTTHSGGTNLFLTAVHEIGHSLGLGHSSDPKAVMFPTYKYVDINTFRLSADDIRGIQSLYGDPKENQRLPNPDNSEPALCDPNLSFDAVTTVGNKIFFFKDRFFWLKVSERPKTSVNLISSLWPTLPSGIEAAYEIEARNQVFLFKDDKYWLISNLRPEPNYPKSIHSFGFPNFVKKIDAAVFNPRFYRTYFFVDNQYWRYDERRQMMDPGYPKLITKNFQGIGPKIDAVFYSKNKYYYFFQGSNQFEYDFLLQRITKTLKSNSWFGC
T2 sequence (P08253 whole entry, looked up, other chains not shown): as the sequence (P08253 whole entry) above
Chain of Matrix metalloproteinase-9 (P14780 whole entry): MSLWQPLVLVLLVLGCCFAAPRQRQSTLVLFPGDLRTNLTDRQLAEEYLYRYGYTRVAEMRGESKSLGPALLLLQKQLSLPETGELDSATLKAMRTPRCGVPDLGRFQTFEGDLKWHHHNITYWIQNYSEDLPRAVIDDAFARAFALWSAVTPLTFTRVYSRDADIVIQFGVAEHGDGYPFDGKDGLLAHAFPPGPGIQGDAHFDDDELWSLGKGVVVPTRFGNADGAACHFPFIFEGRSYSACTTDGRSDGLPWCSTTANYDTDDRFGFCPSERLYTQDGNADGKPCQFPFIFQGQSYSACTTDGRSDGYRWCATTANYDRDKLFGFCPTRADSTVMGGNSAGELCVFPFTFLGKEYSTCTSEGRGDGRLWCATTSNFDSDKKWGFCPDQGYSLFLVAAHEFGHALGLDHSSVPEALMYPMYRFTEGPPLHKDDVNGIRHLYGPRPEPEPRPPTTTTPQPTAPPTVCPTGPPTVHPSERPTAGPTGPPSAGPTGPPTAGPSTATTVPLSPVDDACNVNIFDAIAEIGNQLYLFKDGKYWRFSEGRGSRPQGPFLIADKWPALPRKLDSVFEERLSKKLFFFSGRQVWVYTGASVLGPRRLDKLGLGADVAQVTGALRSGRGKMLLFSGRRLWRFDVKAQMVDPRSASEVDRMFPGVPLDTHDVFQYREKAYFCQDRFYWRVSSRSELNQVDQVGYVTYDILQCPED
Chain of Stromelysin-1 (P08254 whole entry): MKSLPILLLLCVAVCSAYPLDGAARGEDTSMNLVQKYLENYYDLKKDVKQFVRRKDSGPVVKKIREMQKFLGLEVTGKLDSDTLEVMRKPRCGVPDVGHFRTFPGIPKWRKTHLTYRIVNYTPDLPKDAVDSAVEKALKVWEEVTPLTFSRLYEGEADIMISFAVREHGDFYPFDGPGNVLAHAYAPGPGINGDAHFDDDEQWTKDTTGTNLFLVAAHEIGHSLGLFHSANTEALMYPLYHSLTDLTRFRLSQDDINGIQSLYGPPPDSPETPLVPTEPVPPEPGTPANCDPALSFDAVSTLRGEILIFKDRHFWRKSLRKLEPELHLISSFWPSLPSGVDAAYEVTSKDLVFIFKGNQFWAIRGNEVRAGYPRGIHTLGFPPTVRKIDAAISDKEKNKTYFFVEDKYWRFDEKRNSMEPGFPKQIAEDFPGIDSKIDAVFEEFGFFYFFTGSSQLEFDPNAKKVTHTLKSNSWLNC
Chain of Neutrophil collagenase (P22894 whole entry): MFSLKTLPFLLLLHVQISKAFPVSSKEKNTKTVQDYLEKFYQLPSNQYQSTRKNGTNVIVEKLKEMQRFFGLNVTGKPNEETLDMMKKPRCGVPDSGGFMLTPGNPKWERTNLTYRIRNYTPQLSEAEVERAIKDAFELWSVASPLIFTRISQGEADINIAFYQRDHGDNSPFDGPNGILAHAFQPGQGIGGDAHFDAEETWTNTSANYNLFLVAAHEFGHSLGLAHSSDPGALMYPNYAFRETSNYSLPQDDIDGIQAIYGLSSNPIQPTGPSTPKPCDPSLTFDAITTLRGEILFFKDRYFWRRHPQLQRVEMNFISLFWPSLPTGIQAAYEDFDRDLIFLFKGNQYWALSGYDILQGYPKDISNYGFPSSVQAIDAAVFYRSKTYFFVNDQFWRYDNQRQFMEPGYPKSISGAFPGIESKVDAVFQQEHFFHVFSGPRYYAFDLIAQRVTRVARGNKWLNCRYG
Chain of MMP-1/MMP-2 (Homo sapiens) (P08253 whole entry, looked up, one chain of several): as the sequence (P08253 whole entry) above

CC(C)C[C@H](NC(=O)[C@@H]1C[C@H](N)CN1C(=O)CC[C@@H](NS(=O)(=O)c1ccc(NC(=O)c2ccc(C(N)=O)cc2)cc1)C(=O)O)C(=O)N(C)[C@@H](CCC(=O)O)C(=O)NCCCCC(N)=O
Ratio Ki [1]: 140000 | Ratio Ki [2]: 53000 | Ki [3]: 68 nM | Ratio Ki [4]: 2000 | Ki [5]: 1900 nM | remaining at 336 h [6]: 99% | Ratio Ki [7]: 7.9e+06 | Ki [8]: 0.034 nM | Ki [9]: 4900 nM | Ratio IC50 [10]: 1100 | Ratio IC50 [11]: 1100 | IC50 [12]: 250 nM | IC50 [13]: 0.22 nM | remaining at 336 h [14]: 98.7% | Ki [15]: 170 nM | T1/2 [16]: 4.42 h | Ratio Ki [17]: 3200 | Ki [18]: 150000 nM | Ratio Ki [19]: 5000 | Ratio Ki [20]: 56000 | IC50 [21]: 0.034 nM | remaining at 336 h [22]: 98.1% | IC50 [23]: 270000 nM | IC50 [24]: 1800 nM | Ki [25]: 110 nM | remaining at 4 h [26]: 93.1%
